The record followed here is ChEMBL document CHEMBL1201862, “PubChem BioAssay data set” (2004).

Among the test systems are NCI-H226; LOX IMVI; MDA-MB-231; ACHN; SF-268; UACC-62; OVCAR-8; 786-0; SK-MEL-2; MCF7; NCI-H23; A498; HOP-62; DU-145; COLO 205; NCI-H460; MDA-MB-435; U-251; Hs-578T; KM12.
Holding throughout (assay): NCI tumour cell line growth inhibition, 48 h

Each structure is given as a SMILES string.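 Tested at 5 concentrations; 48 h exposure; 96-well plates; endpoints linearly interpolated, else capped at highest concentration. GI50 is the concentration that inhibits growth by half.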 The source made the active and inactive calls. Rule as the data show it: active = GI50 up to about 1.1 µM and inactive = higher.

Regarding `Cn1c(=O)c2c(nc3sc4c(n32)C(=O)c2c(O)ccc(O)c2C4=O)n(C)c1=O`, the GI50 is 53.8 µM (inactive) with NCI-H226; 0.871 µM (active) in the assay on LOX IMVI; 2.28 µM (inactive) in the assay on MDA-MB-231; 2.94 µM (inactive) in the assay on ACHN; 6.04 µM (inactive) in the assay with SF-268; 4.73 µM (inactive) with UACC-62. Besides, the GI50 in the assay on OVCAR-8 was 2.34 µM (inactive); with 786-0 it was 1.75 µM (inactive); in the assay on SK-MEL-2 it was 4.42 µM (inactive); in the assay on MCF7 it was 0.955 µM (active); in the assay with NCI-H23, 7.55 µM (inactive); in the assay with A498, 22.1 µM (inactive). For the same compound, the GI50 was 12.8 µM (inactive) with HOP-62; 11.2 µM (inactive) in the assay on DU-145; 3.46 µM (inactive) with COLO 205; 20.5 µM (inactive) with NCI-H460; 4.78 µM (inactive) in the assay on MDA-MB-435; 14.6 µM (inactive) in the assay with U-251. For the same compound, the results for the GI50 in the assay on Hs-578T and in the assay with KM12 were 16.3 µM (inactive) and 2.77 µM (inactive), respectively.

For the compound `O=c1[nH]c(Nc2ccc(Br)c(C(F)(F)F)c2)nc2[nH]cnc12`, the GI50 in the assay with NCI-H226 is 47.5 µM (inactive); in the assay on LOX IMVI, 39.1 µM (inactive); in the assay on MDA-MB-231, 63.8 µM (inactive); in the assay with ACHN, 43.4 µM (inactive); with SF-268, 28.5 µM (inactive); with UACC-62, 23.8 µM (inactive). Also, the GI50 with OVCAR-8 is 42.9 µM (inactive); with 786-0, 40.1 µM (inactive); in the assay on SK-MEL-2 it was 20.2 µM (inactive); in the assay with MCF7, 51.5 µM (inactive); in the assay with NCI-H23 it was 38.5 µM (inactive); in the assay on A498, 33.4 µM (inactive). In addition, the GI50 was 48.8 µM (inactive) in the assay on HOP-62; 55 µM (inactive) with DU-145; 20.8 µM (inactive) with COLO 205; 45.2 µM (inactive) with NCI-H460; 30.7 µM (inactive) in the assay with MDA-MB-435; 36.1 µM (inactive) in the assay on U-251. In addition, the GI50 in the assay with Hs-578T was 13.1 µM (inactive); with KM12 it was 29 µM (inactive).

Take `NCCSc1nc2ccccc2s1`: the GI50 in the assay with NCI-H226 is 36.6 µM (inactive); in the assay with LOX IMVI, 30.7 µM (inactive); with MDA-MB-231 it was 40 µM (inactive); in the assay on ACHN, 33.5 µM (inactive); in the assay on SF-268, 32.5 µM (inactive); with UACC-62 it was 31.3 µM (inactive). The GI50 is 43.2 µM (inactive) with OVCAR-8; 26.6 µM (inactive) in the assay on 786-0; 26.1 µM (inactive) in the assay with SK-MEL-2; 28.8 µM (inactive) in the assay with MCF7; 41.7 µM (inactive) in the assay with NCI-H23; 32.9 µM (inactive) in the assay with A498. Further, the GI50 in the assay on HOP-62 is 23.8 µM (inactive); in the assay on DU-145, 33.9 µM (inactive); in the assay on COLO 205 it was > 100 µM (inactive); in the assay on NCI-H460, 36.1 µM (inactive); in the assay on MDA-MB-435, 23 µM (inactive); in the assay on U-251 it was 21.7 µM (inactive). Besides, the GI50 with Hs-578T is 32.1 µM (inactive); in the assay with KM12, 45.1 µM (inactive).

For `CCC1(N)C(=O)OCc2c1cc1n(c2=O)Cc2cc3ccccc3nc2-1` (stereo not given), the GI50 with NCI-H226 is 6.08 µM (inactive); in the assay on LOX IMVI, 4.78 µM (inactive); in the assay with MDA-MB-231, 77.4 µM (inactive); in the assay on ACHN, 3.73 µM (inactive); in the assay with SF-268, 5.7 µM (inactive); with UACC-62 it was 2.75 µM (inactive). For the same compound, the GI50 was 7.71 µM (inactive) in the assay on OVCAR-8; 3.74 µM (inactive) in the assay on 786-0; > 85.7 µM (inactive) in the assay on SK-MEL-2; 2.14 µM (inactive) with MCF7; 4.56 µM (inactive) with NCI-H23; 4.74 µM (inactive) with A498. The GI50 in the assay on HOP-62 was 5.69 µM (inactive); in the assay on DU-145, 2.65 µM (inactive); in the assay on COLO 205 it was 30.5 µM (inactive); in the assay on NCI-H460, 0.47 µM (active); in the assay with MDA-MB-435 it was 54.6 µM (inactive); with U-251, 6.73 µM (inactive). The GI50 is > 100 µM (inactive) in the assay on Hs-578T and 46.1 µM (inactive) in the assay on KM12.

Consider `CC1(c2cccc(Cl)c2)CC(c2cccc(Cl)c2)=C(C#N)C(=C(C#N)C#N)N1` (stereo not given), for which the GI50 is 18.7 µM (inactive) in the assay with NCI-H226; 19.8 µM (inactive) in the assay with LOX IMVI; 22.3 µM (inactive) in the assay on MDA-MB-231; 17.8 µM (inactive) with ACHN; 4.62 µM (inactive) in the assay with SF-268; 17 µM (inactive) in the assay with UACC-62. In addition, the GI50 in the assay on OVCAR-8 was 17.9 µM (inactive); with 786-0, 15.7 µM (inactive); in the assay with SK-MEL-2 it was 21.7 µM (inactive); in the assay with MCF7, 20.6 µM (inactive); in the assay on NCI-H23, 17.4 µM (inactive); with A498 it was 20.3 µM (inactive). Moreover, the GI50 in the assay on HOP-62 is 19.4 µM (inactive); in the assay with DU-145 it was 15.8 µM (inactive); in the assay with COLO 205, 13.2 µM (inactive); with NCI-H460, 27.6 µM (inactive); in the assay on MDA-MB-435, 17 µM (inactive); in the assay with U-251, 16.4 µM (inactive). The results for the GI50 with Hs-578T and with KM12 were 9.75 µM (inactive) and 18 µM (inactive), respectively.

Consider `N/C(=N\Nc1nc2cc([N+](=O)[O-])ccc2o1)c1ccccn1`, for which the GI50 with NCI-H226 was 0.418 µM (active); in the assay on LOX IMVI it was 0.071 µM (active); in the assay on MDA-MB-231, 0.114 µM (active); with ACHN, 0.0802 µM (active); with SF-268 it was 0.0738 µM (active); with UACC-62, 0.0574 µM (active). The GI50 was 0.0474 µM (active) with OVCAR-8; 0.0897 µM (active) with 786-0; 0.167 µM (active) with SK-MEL-2; 0.12 µM (active) with MCF7; 0.229 µM (active) in the assay on NCI-H23; 0.248 µM (active) in the assay on A498. The GI50 was 0.232 µM (active) with HOP-62; 0.182 µM (active) with DU-145; 0.0366 µM (active) in the assay with COLO 205; 0.0468 µM (active) in the assay with NCI-H460; 0.551 µM (active) in the assay on MDA-MB-435; 0.0966 µM (active) in the assay with U-251. In addition, the results for the GI50 in the assay on Hs-578T and in the assay on KM12 were 4.31 µM (inactive) and 0.372 µM (active), respectively.

For the compound `O=CNNC(=O)CSc1nc2ccc(I)cc2c(=O)n1Cc1ccccc1`, the GI50 with NCI-H226 was 49.3 µM (inactive); in the assay with LOX IMVI, 25.4 µM (inactive); in the assay with MDA-MB-231, 29.3 µM (inactive); in the assay with ACHN, 34.8 µM (inactive); in the assay on SF-268 it was 35.4 µM (inactive); in the assay with UACC-62, 20.3 µM (inactive). Also, the GI50 in the assay on OVCAR-8 is 46.5 µM (inactive); in the assay on 786-0, 31.3 µM (inactive); in the assay with SK-MEL-2 it was 20.9 µM (inactive); in the assay with MCF7 it was 37.2 µM (inactive); in the assay on NCI-H23, 36.7 µM (inactive); in the assay with A498, 37.9 µM (inactive). In addition, the GI50 is 37.1 µM (inactive) in the assay with HOP-62; 43.7 µM (inactive) in the assay with DU-145; 17.9 µM (inactive) in the assay on COLO 205; 20 µM (inactive) in the assay on NCI-H460; 40.5 µM (inactive) in the assay on MDA-MB-435; 36.6 µM (inactive) with U-251. The values for the GI50 in the assay with Hs-578T and in the assay with KM12 were 34 µM (inactive) and 33.4 µM (inactive), respectively.
